Data from patent US5073539A, “Transdermal administration of zwitterionic drugs” (Ciba-Geigy Corporation, priority 1990, dated 1991).
In brackets after ≈: the same amount, converted by molar mass. Counter-ions that a name gives are not always drawn. Like-named read-outs stand apart in the source and are kept apart here.

Columns and labels:
[1] = Solubility in chloroform at 25 deg. C. (model of skin lipids); type: physicochemical
Source text: (§1) In the examples, the solubilities of free zwitterion and enhanced solubilities of various salts thereof are reported in various degrees in the following solvents: water, ethanol, octanol, chloroform and human stratum corneum. Permeation rates are also shown for these zwitterionic compounds and enhanced fluxes of the salts thereof through materials including polyurethane. While such materials are impractical for transdermal devices for free zwitterions, these materials are practical for the transdermal delivery of salts of zwitterions. The solubility in water is given as a model of polar solvents, while the octanol and chloroform are given as models for skin lipids. The critical factor for inclusion of a salt within the invention is that relative to its non salt zwitterion parent compound, the salt form of the invention has a greater solubility in both polar and lipid skin models.
(§2) Average of values measured in triplicate.

[2] = Solubility in water at 25 deg. C.; type: physicochemical; settings: average of triplicate
Source text: (§3) The solubility in water is given as a model of polar solvents, while the octanol and chloroform are given as models for skin lipids.

[3] = Solubility in ethanol at 25 deg. C.; type: physicochemical; settings: average of triplicate
[4] = Permeation rate through polyurethane; type: physicochemical
Source text: as §1, §2

[5] = Permeation rate through human epidermis; type: in vitro ADME
Source text: as §1, §2

[6] = Solubility in octanol at 25 deg. C. (model of skin lipids); type: physicochemical; settings: average of triplicate
Source text: as §3

[7] = Solubility in human stratum corneum; type: physicochemical; settings: average of triplicate
Source text: as §1, §2

[8] = at 25 deg. C., average of triplicate

Row | Solubility in chloroform [1, 8] [µg/mL] | Solubility in water [2] [mg/mL] | Solubility in ethanol [3] [mg/mL] | Permeation rate through polyurethane ([4]; average of triplicate) [ug/cm 2/hr] | R.E. (relative enhancement) of permeation rate through polyurethane ([4]; relative to free zwitterion) | Solubility in octanol [6] [mg/mL] | Permeation rate through polyurethane [4] [ug/cm 2/hr] | R.E. (relative enhancement) of permeation rate through polyurethane [4] | SMILES | also measured
1 | 11.17 | 38.8898 | 237.181 | 211.9 | 39.83 |  |  |  | NCC(CC(=O)O)c1ccc(Cl)cc1 (stereo not drawn) [Bac. ethane sulfonate] | 
2 | 0.627 | 1.1875 |  | 11.4 | 2.14 |  |  |  | NCC(CC(=O)O)c1ccc(Cl)cc1 (stereo not drawn) [Bac. fumarate] | 
3 | 13.7 | 351.9468 | 129.5697 | 738.9 | 138.89 | 0.47705 |  |  | NCC(CC(=O)O)c1ccc(Cl)cc1 (stereo not drawn) [Bac. hydrobromide] | Permeation rate through human epidermis ([5]; average of triplicate): 25.49 ug/cm 2/hr; R.E. (relative enhancement) of permeation rate through human epidermis ([5]; relative to free zwitterion): 216.02; Solubility in human stratum corneum [7]: 0.2922 mg/mL
4 | 5.34 | 244.6225 | 37.4989 | 273.7 | 51.45 | 0.3243 |  |  | NCC(CC(=O)O)c1ccc(Cl)cc1 (stereo not drawn) [Bac. hydrochloride] | Solubility in human stratum corneum [7]: 0.21469 mg/mL
5 | 0.104 (≈ 0.000487 mM) | 1.3962 (≈ 6.53 mM) | 1.79088 (≈ 8.38 mM) | 3.45 | 0.65 |  |  |  | NCC(CC(=O)O)c1ccc(Cl)cc1 (stereo not drawn) [Bac. hydrofluoride] | Solubility in human stratum corneum [7]: 0.02215 mg/mL (≈ 0.104 mM)
6 | 6.93 | 21.7191 | 57.8373 | 128.3 | 24.12 |  |  |  | NCC(CC(=O)O)c1ccc(Cl)cc1 (stereo not drawn) [Bac. lithium salt] | 
7 | 0.026 | 1.2923 |  | 19.13 | 3.59 |  |  |  | NCC(CC(=O)O)c1ccc(Cl)cc1 (stereo not drawn) [Bac. maleate] | 
8 | 0.087 | 8.8269 | 170.84 | 287.9 | 54.12 |  |  |  | NCC(CC(=O)O)c1ccc(Cl)cc1 (stereo not drawn) [Bac. methane sulfonate, baclofen methane sulfonate] | solubility in chloroform versus free zwitterion ([1]; in words, exception to salt being more soluble): one exception
9 | 37.4 |  | 61.6503 | 220.2 | 41.30 | 0.5764 |  |  | NCC(CC(=O)O)c1ccc(Cl)cc1 (stereo not drawn) [Bac. pentane sulfonate] | 
10 |  |  |  | 587.8 | 110.49 |  |  |  | NCC(CC(=O)O)c1ccc(Cl)cc1 (stereo not drawn) [Bac. potassium salt] | 
11 | 8.74 | 24.4257 | 107.317 | 233.9 | 43.97 |  |  |  | NCC(CC(=O)O)c1ccc(Cl)cc1 (stereo not drawn) [Bac. propane sulfonate] | 
12 | 3.47 | 21.3797 | 529.056 | 605.3 | 113.78 |  |  |  | NCC(CC(=O)O)c1ccc(Cl)cc1 (stereo not drawn) [Bac. sodium salt] | 
13 | 0.22 (≈ 0.00103 mM) | 6.8287 (≈ 32 mM) | 1.1441 (≈ 5.35 mM) | 5.32 | 1.00 | 0.0222 (≈ 0.104 mM) |  |  | NCC(CC(=O)O)c1ccc(Cl)cc1 (stereo not drawn) [Baclofen (Bac), Baclofen, reference compound] | Permeation rate through human epidermis ([5]; average of triplicate): 0.118 ug/cm 2/hr; R.E. (relative enhancement) of permeation rate through human epidermis ([5]; relative to free zwitterion): 1.00; Solubility in human stratum corneum [7]: 0.00311 mg/mL (≈ 0.0146 mM)
14 |  |  | 0.12089 (≈ 0.305 mM) |  |  |  | 0.311 | 1.00 | O=C(O)CN1C(=O)[C@@H](N[C@@H](CCc2ccccc2)C(=O)O)CCc2ccccc21 [Benazeprilat (CGS14831), Benazeprilat, reference compound] | Permeation rate through human epidermis [5]: 0.1409 ug/cm 2/hr; R.E. (relative enhancement) of permeation rate through human epidermis [5]: 1.00
15 |  |  | 27.97561 |  |  |  | 47.76 | 153.57 | O=C(O)CN1C(=O)[C@@H](N[C@@H](CCc2ccccc2)C(=O)O)CCc2ccccc21 [CGS 14831. dilithium salt] | Permeation rate through human epidermis [5]: 8.95 ug/cm 2/hr; R.E. (relative enhancement) of permeation rate through human epidermis [5]: 63.52
16 |  |  | 34.19351 |  |  |  | 75.01 | 241.19 | O=C(O)CN1C(=O)[C@@H](N[C@@H](CCc2ccccc2)C(=O)O)CCc2ccccc21 [CGS 14831. dipotassium salt] | Permeation rate through human epidermis [5]: 20.56 ug/cm 2/hr; R.E. (relative enhancement) of permeation rate through human epidermis [5]: 145.92
17 |  | 491.5 (≈ 1350 mM) | 0.1907 (≈ 0.525 mM) |  |  | 0.02336 (≈ 0.0643 mM) | 0.538 | 1.00 | NCCCC[C@H](N[C@H]1CCc2ccccc2N(CC(=O)O)C1=O)C(=O)O [CGS 16617, reference compound] | 
18 |  | 1423 | 45.0269 |  |  | 0.5067 | 65.31 | 121.39 | NCCCC[C@H](N[C@H]1CCc2ccccc2N(CC(=O)O)C1=O)C(=O)O [CGS 16617. dihydrobromide] | 
19 |  | 1127.8 | 1.89075 |  |  | 0.0878 | 13.34 | 24.80 | NCCCC[C@H](N[C@H]1CCc2ccccc2N(CC(=O)O)C1=O)C(=O)O [CGS 16617. dihydrochloride] | 
20 |  | 623.9 | 0.24882 |  |  | 0.01396 | 3.47 | 6.45 | NCCCC[C@H](N[C@H]1CCc2ccccc2N(CC(=O)O)C1=O)C(=O)O [CGS 16617. monomaleate] | 

Row | SMILES | Solubility in chloroform [1, 8] [µg/mL] | Solubility in water [2] [mg/mL] | Solubility in ethanol [3] [mg/mL] | Permeation rate through polyurethane ([4]; average of triplicate) [ug/cm 2/hr] | R.E. (relative enhancement) of permeation rate through polyurethane ([4]; relative to free zwitterion) | Solubility in octanol [6] [mg/mL] | Permeation rate through polyurethane [4] [ug/cm 2/hr] | R.E. (relative enhancement) of permeation rate through polyurethane [4] | also measured
21 | NC(Cc1ccccc1)C(=O)O (stereo not drawn) [Phe. hydrochloride] | 58.26 | 959.6908 | 107.1459 | 1516.23 | 789.70 | 40.2318 |  |  | Permeation rate through human epidermis ([5]; average of triplicate): 77.53 ug/cm 2/hr; R.E. (relative enhancement) of permeation rate through human epidermis ([5]; relative to free zwitterion): 76.01
22 | N[C@@H](Cc1ccccc1)C(=O)O [Phenylalanine (Phe), Phenylalanine, reference compound] |  |  |  | 1.92 | 1.00 |  |  |  | Permeation rate through human epidermis ([5]; average of triplicate): 1.02 ug/cm 2/hr; R.E. (relative enhancement) of permeation rate through human epidermis ([5]; relative to free zwitterion): 1.00; solubility ([1]; chloroform, organic solvent or mixture, at 25 deg. C., average of triplicate): 0.00021 mg/mL (≈ 0.00127 mM); solubility ([2]; water): 25.3 mg/mL (≈ 153 mM); solubility ([3]; ethanol, organic solvent or mixture): 0.234 mg/mL (≈ 1.42 mM); solubility ([6]; octanol, organic solvent or mixture): 0.0123 mg/mL (≈ 0.0745 mM)
